This note sets out measurements from US11427596B2, “Metal-free solvent-free synthesis of fused-pyrido heterocycles and biomedical applications” (Indian Institute of Technology Indore, priority 2019, dated 2022).

In this assay the test system is Mycobacterium bovis. Format: cell-based. The settings on record: virulent/opportunistic multidrug resistant Mycobacterium bovis (BCG), incubation 48 hrs, n=3.

Each structure is given as a SMILES string.

As for `Cc1ccc(-c2nc(COCc3cn(CCN4C(=O)C(=O)c5ccccc54)nn3)cc3oc(C)cc23)o1` [compound 26, 1-(2-(4-(((2-Methyl-4-(5-methylfuran-2-yl)furo[3,2-c]pyridin-6-yl)methoxy)methyl)-1H-1,2,3-triazol-1-yl)ethyl)indoline-2,3-dione], the “concentration range in which active (antituberculosis activity)” value was 70 to 100 µM.
